Measurements from patent US7906491B2 (Univisitair Medisch Centrum Utrecht, priority 2002, dated 2011).

Experiments:
Format in all cases: cell-based
Rap1 [1] = assay: Rap1 activation assay (read-out for Epac) in NIH3T3-A14-Epac1 cells; conditions: 15 min, 8-Br-cAMP 1 mM
Procedure: (§1) Upper panel: NIH3T3-A14-Epac1 cells were treated for 15 min with 8-Br-cAMP, and cell lysates were analyzed for activation of Rap1 and phosphorylation of CREB. Lower panel: NIH3T3-A14-Epac1 cells were treated in duplicate for 15 min with increasing concentrations of 8-pCPT-2′-O-Me-cAMP. Cells were lysed and equal amounts of cell lysate were incubated with precoupled GST-RalGDSRBD and Rap1 was assayed by immunoblotting with Rap1 antibody.
(§2) Therefore, 8-CPT-2′-O-Me-cAMP was tested in NIH3T3-A14-Epac1 cells for the activation of Epac, using Rap1 as a read-out, and of PKA, using phosphorylation of the common PKA substrate CREB 29 as a read-out.
NIH3T3-A14 cells, stably expressing Epac1, were grown in DMEM with 10% fetal calf serum and 2 μg/ml puromycin. NIH-OVCAR3 (Ovcar3) cells were maintained in RPMI with 10% fetal calf serum. Transient transfection of Ovcar3 cells was performed using the FuGENE 6 transfection reagent (Roche Diagnostics, Mannheim, Germany) according to the manufacturer's procedures, using 6 μg total DNA including a CMV-luciferase plasmid (0.2 μg).
Rap activation assays were performed as described previously (16-18). Briefly, cells were lysed in lysis buffer containing 10% glycerol, 1% Nonidet P-40, 50 mM Tris-Cl pH7.5, 200 mM NaCl, 2mM MgCl2, 1 μM leupeptin, 0.1 μM aprotinin, 5 mM NaF, 1 mM NaVO3. Lysates were clarified by centrifugation and incubated with GST-tagged RalGDS-RBD pre-coupled to glutathione beads to specifically pull down the GTP-bound forms of Rap1. Samples were incubated for 1 hr at 4° C. while tumbling. Beads were washed four times in lysis buffer, and the remaining fluid was removed with an insulin syringe. Proteins were eluted with Laemmli sample buffer and analyzed by sodium dodecyl sulphate (SDS)-polyacrylamide gel electrophoresis and Western blotting using Rap1 antibodies. As a control, Rap1 levels in whole cell lysates were determined.

CREB = CREB phosphorylation (read-out for PKA) in NIH3T3-A14-Epac1 cells; conditions: 15 min, 8-Br-cAMP 1 mM
Procedure: as §1, §2
Antibodies against phosphorylated CREB (directed against phosphorylated Serl33) were obtained from Cell Signalling (Beverly, Mass., USA), and antibodies against K-Rev/Rap1 and polyclonal anti-HA were obtained from Santa Cruz Biotechnology (Santa Cruz, Calif., USA). The following inhibitors and stimuli were used at concentrations indicated, unless stated otherwise: RGD peptide (100 μM) and H-89 (10 μM) was obtained from Biomol Research Laboratories Inc. (Plymouth Meeting, Pa., USA). 8-Br-cAMP (1 mM) was obtained from BIOLOG Life Science Institute (Bremen, Germany). TPA (12-O-tetradecanoylphorbol-13-acetate) was obtained from Sigma (Steinheim, Germany) and was used at a concentration of 100 ng/ml. […]

Ovcar3 cells = assay: Adhesion assay of Ovcar3 cells to fibronectin; conditions: H-89 10 μM, 8-pCPT-2′-O-Me-cAMP 100 μM, FIG. 7C
Procedure: A: 8-pCPT-2′-O-Me-cAMP stimulates cell adhesion. Upper panel: quantification of Ovcar3 cells adhering to fibronectin after treatment with increasing concentrations of 8-pCPT-2′-O-Me-cAMP. Lower panel: Ovcar3 cells were treated with increasing concentrations of 8-pCPT-2′-O-Me-cAMP for 15 min, cells were lysed and analyzed for activation of Rap1 (upper blot) and CREB (lower blot). Total Rap1 levels are shown (middle blot). B: 8-pCPT-2′-O-Me-cAMP increases the rate of cell adhesion. Upper panel: quantification of Ovcar3 cells adhering to fibronectin at various time points. Lower panel: cells were treated with 60 μM 8-pCPT-2′-O-Me-cAMP for the indicated times. Cell lysates were analyzed for activation of Rap1 (upper blot) and CREB (lower blot). Total levels of Rap1 in cell lysates are shown (middle blot). C: Ovcar3 cells were either pre-incubated at 37° C. for 30 min with the PKA inhibitor H-89 (10 μM) 30 min prior to seeding onto the wells (‘Short’) or H-89 was added 30 min prior to trypsinization and during the recovery period (‘Long’) and seeded onto wells in the absence or presence of 8-pCPT-2′-O-Me-cAMP (100 μM). Cells were allowed to adhere for 1 h. D, cAMP-induced adhesion to fibronectin is blocked by inhibitors of Rap1. Left panel: Ovcar3 cells were transiently transfected with either mock DNA, increasing concentrations of HA-Rap1GAP II (0.5, 1, 2 or 6 μg, respectively), HA-Rap1GAPI (6 μg) or HA-RBD of RalGDS (6 μg), respectively. Cells were treated with 8-Br-cAMP or 8-pCPT-2′-O-Me-cAMP and adhesion to fibronectin was determined. […]
In functional assays, 8-pCPT-2′-O-Me-cAMP appeared to induce integrin-mediated cell adhesion through Epac and Rap1. […] The cells were seeded onto fibronectin-coated plates in the presence or absence of 8-pCPT-2′-O-Me-cAMP and the amount of cells that adhered after a certain period of time was quantified. […]
24-well plates were coated overnight with 2 μg/ml fibronectin (Sigma, St. Louis, Mo., USA) in sodium bicarbonate buffer (Sigma, St. Louis, Mo., USA). […] Cells were centrifuged, counted and resuspended at 3×10^5 cells/ml in serum-free RPMI with 0.5% BSA. […]

Rap1 [2] = assay: Rap1 activation assay in Ovcar3 cells; conditions: H-89 10 μM, FIG. 7C
Procedure: A: 8-pCPT-2′-O-Me-cAMP stimulates cell adhesion. Upper panel: quantification of Ovcar3 cells adhering to fibronectin after treatment with increasing concentrations of 8-pCPT-2′-O-Me-cAMP. Lower panel: Ovcar3 cells were treated with increasing concentrations of 8-pCPT-2′-O-Me-cAMP for 15 min, cells were lysed and analyzed for activation of Rap1 (upper blot) and CREB (lower blot). Total Rap1 levels are shown (middle blot). B: 8-pCPT-2′-O-Me-cAMP increases the rate of cell adhesion. Upper panel: quantification of Ovcar3 cells adhering to fibronectin at various time points. Lower panel: cells were treated with 60 μM 8-pCPT-2′-O-Me-cAMP for the indicated times. Cell lysates were analyzed for activation of Rap1 (upper blot) and CREB (lower blot). Total levels of Rap1 in cell lysates are shown (middle blot). C: Ovcar3 cells were either pre-incubated at 37° C. for 30 min with the PKA inhibitor H-89 (10 μM) 30 min prior to seeding onto the wells (‘Short’) or H-89 was added 30 min prior to trypsinization and during the recovery period (‘Long’) and seeded onto wells in the absence or presence of 8-pCPT-2′-O-Me-cAMP (100 μM). Cells were allowed to adhere for 1 h. D, cAMP-induced adhesion to fibronectin is blocked by inhibitors of Rap1. Left panel: Ovcar3 cells were transiently transfected with either mock DNA, increasing concentrations of HA-Rap1GAP II (0.5, 1, 2 or 6 μg, respectively), HA-Rap1GAPI (6 μg) or HA-RBD of RalGDS (6 μg), respectively. Cells were treated with 8-Br-cAMP or 8-pCPT-2′-O-Me-cAMP and adhesion to fibronectin was determined. Right upper panel: luciferase counts of total input cells per well in the above experiment are shown. Right lower panel: expression of HA-Rap1GAPs in the above experiment is shown.
Rap activation assays were performed as described previously (16-18). […] Proteins were eluted with Laemmli sample buffer and analyzed by sodium dodecyl sulphate (SDS)-polyacrylamide gel electrophoresis and Western blotting using Rap1 antibodies. As a control, Rap1 levels in whole cell lysates were determined.

SMILES	activation of Rap1 (Rap1 [1])	phosphorylation of CREB (CREB)	effect on 8-pCPT-2′-O-Me-cAMP induction of adhesion (Ovcar3 cells)	effect on 8-pCPT-2′-O-Me-cAMP activation of Rap1 (Rap1 [2])
Nc1ncnc2c1nc(Br)n2[C@@H]1O[C@@H]2COP(=O)(O)O[C@H]2[C@H]1O [Compound 8-Br-cAMP, 8-Br-cAMP, reference compound]	induced both the activation of Rap1	induced both the activation of Rap1 and the phosphorylation of CREB	–	–
O=S(=O)(NCCNC/C=C/c1ccc(Br)cc1)c1cccc2cnccc12 [Compound H-89, H-89, reference compound]	–	–	insensitive	insensitive
